Reference: patent US20250057963A1, “DISCOVERY OF PIPERLONGUMINE AS A NOVEL E3 LIGASE LIGAND” (University of Florida Research Foundation, Incorporated, priority 2021, published 2025)
“Also recorded” adds a separate entry of the source.

Tests used:
[1] = target: T1, CDK10 (Homo sapiens, UniProt Q15131); assay: CDK10 degradation in MOLT4 cells (TMT proteomics, immunoblot); assay type: cell-based
T1 construct: endogenous in cells; host or cells: MOLT4
Protocol: (§1) Cells were collected and lysed in RIPA lysis buffer (Cat. #BP-115DG, Boston Bio Products, Ashland, MA, USA) supplemented with protease and phosphatase inhibitor cocktails (Cat. #PPC1010, Sigma-Aldrich, St. Louis, MO, USA). Protein samples were made and immunoblotting was performed as described previously (Khan et al., 2019; Lv et al., 2021). Antibodies purchased from Cell Signaling Technologies (CST) and the dilutions are as follows: Biotin (Cat. No. 5571S, 1:1000), PARP (Cat. No. 9542S, 1:1000), c-Myc (Cat. No. 5605S, 1:1000), MCL1 (Cat. No. 5453S, 1:1000), and ALK (Cat. No. 3791S, 1:1000). KEAP1 antibody was purchased from Proteintech (Cat. No. 10503-2-AP, 1:1000). CDK9 antibody was purchased from Santa Cruz (Cat. No. sc-13130, 1:500). V5-tag antibody was purchased from Bethyl (Cat. No. A190-120P, 1:1000). j-actin antibody was purchased from MP Biomedicals (Cat. No. 8691001, 1:20 000).
Sample Preparation and LC-MS/MS analysis. […]
Data processing and analysis. Proteins were identified and MS3 reporter ions quantified using MaxQuant (version 2.0.3.0; Max Planck Institute) against the Homo sapiens UniprotKB database (March 2021) with a parent ion tolerance of 3 ppm, a fragment ion tolerance of 0.5 Da, and a reporter ion tolerance of 0.003 Da. […]

[2] = tested on: c-Myc and MCl-1; assay: c-Myc and MCL-1 expression in MOLT4 cells (qPCR and immunoblot); assay type: cell-based, Human
Protocol: as §1
Total RNA was extracted as mentioned above. Reverse transcription and quantitative PCR (qPCR) was performed as described in our previous study (Lv et al., 2021). Primers used for measuring gene transcriptional level: GAPDH primers (forward 5′-[…]-3′ and reverse 5′-[…]-3′) were described previously (Zhang et al., 2018b). MCL1 primers are forward 5′-[…]-3′ and reverse 5′-[…]-3′; MYC primers are forward 5′-[…]-3′ and reverse 5′-[…]-3′.

[3] = target: T2, CDK9: 955: KEAP1 ternary complex (Homo sapiens, UniProt P50750+Q14145); assay: NanoBRET ternary complex formation assay in live 293T cells; assay type: cell-based; details: HiBit-CDK9 and Halo-KEAP1 in 293T cells, 6 h
T2 construct: expressed in transfected cells; host or cells: 293T
T2 sequence (P50750 whole entry): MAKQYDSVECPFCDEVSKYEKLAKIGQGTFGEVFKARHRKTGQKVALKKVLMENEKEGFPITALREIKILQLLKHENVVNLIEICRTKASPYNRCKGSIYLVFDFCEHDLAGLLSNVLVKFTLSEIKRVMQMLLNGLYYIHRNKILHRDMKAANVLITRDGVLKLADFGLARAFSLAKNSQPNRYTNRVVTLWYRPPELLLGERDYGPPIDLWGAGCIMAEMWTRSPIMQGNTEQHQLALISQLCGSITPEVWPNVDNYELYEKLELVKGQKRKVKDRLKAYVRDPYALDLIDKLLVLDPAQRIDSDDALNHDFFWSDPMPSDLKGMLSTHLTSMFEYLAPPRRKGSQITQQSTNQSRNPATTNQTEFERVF
T2 sequence (Q14145 whole entry): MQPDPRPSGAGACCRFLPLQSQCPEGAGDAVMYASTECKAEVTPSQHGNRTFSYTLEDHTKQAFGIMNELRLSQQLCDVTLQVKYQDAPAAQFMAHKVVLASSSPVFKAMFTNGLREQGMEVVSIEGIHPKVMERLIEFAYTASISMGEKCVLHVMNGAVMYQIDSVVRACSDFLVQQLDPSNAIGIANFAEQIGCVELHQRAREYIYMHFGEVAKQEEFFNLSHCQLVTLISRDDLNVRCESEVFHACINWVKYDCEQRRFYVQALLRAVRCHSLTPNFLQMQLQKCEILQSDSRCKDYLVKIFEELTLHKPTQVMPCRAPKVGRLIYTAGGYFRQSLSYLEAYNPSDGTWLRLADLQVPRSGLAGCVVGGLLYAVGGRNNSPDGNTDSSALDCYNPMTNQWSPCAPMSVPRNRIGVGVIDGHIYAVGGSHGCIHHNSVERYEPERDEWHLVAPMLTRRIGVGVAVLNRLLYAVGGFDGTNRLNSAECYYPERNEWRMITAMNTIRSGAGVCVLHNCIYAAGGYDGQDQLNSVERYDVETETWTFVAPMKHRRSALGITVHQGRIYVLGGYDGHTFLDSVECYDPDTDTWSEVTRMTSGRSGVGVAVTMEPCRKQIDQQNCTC
From the text: CMV HiBit (Cat. No. CS1956B03) was purchased from Promega. Plasmid HaloTag-KEAP1 (a gift from Yimon Aye, plasmid #58240) was purchased from Addgene. HiBit-CDK9 were constructed through the Gibson assembly method. The primer pair (5′-[…]atggcaaagcagtacgactcggtggag-3′ and 5′-[…]gaagacgcgctcaaactccgtctggt-3′) and the template HA-CDK9 (a gift from Andrew Rice, plasmid #28102) was used to clone the CDK9 fragment. The primer pair (5′-accagacggagtttgagcgcgtcttc[…]-3′ and 5′-ctccaccgagtcgtactgcttcgccat[…]-3′) and pBit3.1—N(Cat. No. N2361, Promega) were used to clone the vector-containing fragment. The PCR fragments were assembled using NEBuilder® HiFi DNAAssembly Master Mix. DNA sequences in all these plasmids were authenticated by automatic sequencing. […] After treatment, NanoBRET Nano-Glo Substrate (Cat. No. N1662, Promega) was added into the medium, and the contents were mixed by shaking the plate for 30 s before measuring donor and acceptor signals on Biotek plate reader. Dual-filtered luminescence was collected with a 450/50 nm bandpass filter (donor, NanoBiT-CDK9 protein) and a 610-nm longpass filter (acceptor, HaloTag NanoBRET ligand) using an integration time of 0.5 s. mBRET ratios were calculated following the NanoBRET™ Nano-Glo® Detection System (Cat. No. N1662, Promega).

T1 sequence (Q15131 whole entry): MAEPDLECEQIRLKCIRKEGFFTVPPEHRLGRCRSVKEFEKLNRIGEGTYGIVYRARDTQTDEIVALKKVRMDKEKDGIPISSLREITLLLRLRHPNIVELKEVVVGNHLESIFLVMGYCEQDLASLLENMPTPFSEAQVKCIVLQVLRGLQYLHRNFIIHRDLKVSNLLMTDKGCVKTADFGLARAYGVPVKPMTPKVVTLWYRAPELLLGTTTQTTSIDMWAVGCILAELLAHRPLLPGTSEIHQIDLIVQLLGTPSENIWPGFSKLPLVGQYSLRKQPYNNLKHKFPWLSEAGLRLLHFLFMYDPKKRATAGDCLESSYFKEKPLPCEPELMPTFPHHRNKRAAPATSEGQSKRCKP

For `COc1cc(/C=C/C(=O)N2CCC=CC2=O)cc(OC)c1OCCN1CCN(C(=O)CN2CCC(C(=O)Nc3ncc(SCc4ncc(C(C)(C)C)o4)s3)CC2)CC1` [compound 955, (E)-N-(5-(((5-(tert-butyl)oxazol-2-yl)methyl)thio)thiazol-2-yl)-1-(2-(4-(2-(2,6-dimethoxy-4-(3-oxo-3-(6-oxo-3,6-dihydropyridin-1(2H)-yl)prop-1-en-1-yl)phenoxy)ethyl)piperazin-1-yl)-2-oxoethyl)piperidine-4-carboxamide], the “dependence of CDK10 degradation (MG132, MLN4924 pre-treatment)” value [1] was “UPS—and CRL-dependent manner; also recorded: proteasome- and CRL-dependent manner”, the CDK10 degradation ([1]; 0.1 μM 955, 1 μM SNS-032) was “significantly decreased CDK10; also recorded: potently degrade CDK10” and the “effectiveness relative to SNS-032 in downregulating c-Myc and MCl-1 (mRNA and protein)” value [2] was ~10 times. The “potency relative to SNS-032 in downregulation of c-Myc and MCl-1 (mRNA and protein)” value [2] was “about 10 fold” and the “formation of the CDK9:KEAP1 ternary complex” value [3] was “formed a stable ternary complex with CDK9 and KEAP1 in a dose-dependent manner”.
